According to patent publication US8883963B2 (Cadila Healthcare Limited, priority 2007, dated 2014):

Key:
human glucagon receptor = target: T1, human glucagon receptor (Homo sapiens, UniProt P47871); assay: In vitro human glucagon antagonist activity (inhibition of cAMP production) in CHO/human glucagon R cells; type: cell-based; conditions: with saturated concentration of glucagon peptide
T1 construct: The full-length cDNA was cloned in pcDNA3.1 (Invitrogen); expressed in transfected cells

[1] = Stability in simulated gastric fluid; type: in vitro ADME; conditions: 2 μM peptidomimetic, simulated gastric fluid pH 1.5, 37° C.; for half-life at 2 μM: read-out: half-life (t1/2) when incubated with simulated gastric fluid
Description: (§1) Reactions were terminated by the addition of TFA/H2O (15 mL, 10% (v/v)). […] The column was equilibrated with TFA/H20, at a flow rate of 1 mL/min.

[2] = Stability in simulated intestinal fluid; type: in vitro ADME; conditions: 2 μM peptidomimetic, simulated intestinal fluid pH 7.5, 37° C.; for half-life at 2 μM: read-out: half-life (t1/2) when incubated with simulated intestinal fluid
Description: as §1

[3] = Stability in liver microsomes; type: in vitro ADME; conditions: 2 μM peptidomimetic, human liver microsomes, 37° C.; for half-life at 2 μM: pH 7.8, read-out: half-life (t1/2) when incubated with liver microsomes
Description: as §1

[4] = Stability in human plasma; type: in vitro ADME; conditions: 2 μM peptidomimetic, pooled human plasma, 37° C.; for half-life at 2 μM: pH 7.8, read-out: half-life (t1/2) when incubated with human plasma
Description: as §1

Human GLP-1 receptor = target: T2, Human GLP-1 receptor (Homo sapiens, UniProt P43220); assay: In vitro Human GLP-1 R agonist activity (cyclic AMP determination) in CHO/human GLP1R cells; type: cell-based
T2 construct: The full-length cDNA was cloned in pcDNA3.1(+); expressed in transfected cells

DPP IV = DPP IV (Homo sapiens, UniProt P27487); assay: Stability against DPP IV enzyme; type: in vitro ADME; conditions: 37° C.; for % degradation of peptidomimetics in 24 h when incubated with DPP-IV enzyme: 2 μM peptidomimetic; for half-life at 2 μM: DPP IV enzyme, pH 7.8, 2 μM peptidomimetic, read-out: half-life (t1/2) when incubated with DPP-IV enzyme
Description: as §1

Sequence of DPP IV (P27487 whole entry, species assumed): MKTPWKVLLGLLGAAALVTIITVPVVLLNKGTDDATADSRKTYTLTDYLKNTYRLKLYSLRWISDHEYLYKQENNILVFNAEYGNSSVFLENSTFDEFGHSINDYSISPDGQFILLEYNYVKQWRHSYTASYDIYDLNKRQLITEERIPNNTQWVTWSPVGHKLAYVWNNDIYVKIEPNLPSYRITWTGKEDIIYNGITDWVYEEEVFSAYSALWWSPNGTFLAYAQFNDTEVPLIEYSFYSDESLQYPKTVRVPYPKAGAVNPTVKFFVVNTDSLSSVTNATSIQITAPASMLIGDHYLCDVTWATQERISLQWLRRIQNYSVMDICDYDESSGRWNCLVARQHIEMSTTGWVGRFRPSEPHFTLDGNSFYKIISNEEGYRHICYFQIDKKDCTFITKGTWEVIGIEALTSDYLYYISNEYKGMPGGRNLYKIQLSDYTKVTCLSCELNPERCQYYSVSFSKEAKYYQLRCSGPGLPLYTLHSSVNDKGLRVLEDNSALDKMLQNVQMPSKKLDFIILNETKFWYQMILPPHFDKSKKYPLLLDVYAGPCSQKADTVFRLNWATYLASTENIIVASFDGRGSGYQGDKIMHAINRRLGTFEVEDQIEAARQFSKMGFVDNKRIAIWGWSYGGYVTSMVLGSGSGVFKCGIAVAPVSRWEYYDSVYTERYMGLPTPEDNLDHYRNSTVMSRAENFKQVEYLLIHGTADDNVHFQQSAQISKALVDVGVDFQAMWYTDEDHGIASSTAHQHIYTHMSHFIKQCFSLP
T2 sequence (P43220 24-463): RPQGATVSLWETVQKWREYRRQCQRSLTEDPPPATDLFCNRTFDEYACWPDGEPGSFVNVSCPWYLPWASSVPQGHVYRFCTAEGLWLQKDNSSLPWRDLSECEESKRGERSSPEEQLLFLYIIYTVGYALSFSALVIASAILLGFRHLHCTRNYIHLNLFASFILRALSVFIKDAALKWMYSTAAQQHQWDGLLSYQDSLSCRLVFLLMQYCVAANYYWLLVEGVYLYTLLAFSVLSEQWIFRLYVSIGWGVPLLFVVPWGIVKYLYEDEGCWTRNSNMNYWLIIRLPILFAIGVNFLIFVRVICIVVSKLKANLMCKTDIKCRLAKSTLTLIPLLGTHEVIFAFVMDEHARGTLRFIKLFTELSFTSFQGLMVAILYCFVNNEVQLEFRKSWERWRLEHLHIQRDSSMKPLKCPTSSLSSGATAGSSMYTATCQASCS
T1 sequence (P47871 26-477): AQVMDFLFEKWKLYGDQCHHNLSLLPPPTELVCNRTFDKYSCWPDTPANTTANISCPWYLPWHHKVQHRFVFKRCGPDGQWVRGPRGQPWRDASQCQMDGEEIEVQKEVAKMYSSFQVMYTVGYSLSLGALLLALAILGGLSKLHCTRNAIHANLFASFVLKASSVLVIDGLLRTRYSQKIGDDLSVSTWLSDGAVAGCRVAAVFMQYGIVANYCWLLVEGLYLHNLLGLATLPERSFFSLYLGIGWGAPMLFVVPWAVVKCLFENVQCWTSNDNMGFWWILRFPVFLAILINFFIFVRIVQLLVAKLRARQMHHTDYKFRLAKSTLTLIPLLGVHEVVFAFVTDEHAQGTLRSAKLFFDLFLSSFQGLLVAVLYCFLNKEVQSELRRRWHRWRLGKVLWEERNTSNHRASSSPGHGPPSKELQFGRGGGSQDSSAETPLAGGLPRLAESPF

| SMILES | Human Glucagon receptor antagonistic activity shown as inhibition of cAMP production of Glucagon peptide (human glucagon receptor; 1 nM test compound) [pmol/ml/μg prt] | Human Glucagon receptor antagonistic activity shown as inhibition of cAMP production of Glucagon peptide (human glucagon receptor; 10 nM test compound) [pmol/ml/μg prt] | Human Glucagon receptor antagonistic activity shown as inhibition of cAMP production of Glucagon peptide (human glucagon receptor; 100 nM test compound) [pmol/ml/μg prt] | Human Glucagon receptor antagonistic activity shown as inhibition of cAMP production of Glucagon peptide (human glucagon receptor; 1 μM test compound) [pmol/ml/μg prt] | Human Glucagon receptor antagonistic activity shown as inhibition of cAMP production of Glucagon peptide (human glucagon receptor; 10 μM test compound) [pmol/ml/μg prt] | % degradation of peptidomimetics in 24 h when incubated with simulated gastric fluid [1] [%] | % degradation of peptidomimetics in 24 h when incubated with simulated intestinal fluid [2] [%] | % degradation of peptidomimetics in 24 h when incubated with liver microsomes [3] [%] | % degradation of peptidomimetics in 24 h when incubated with human plasma [4] [%] | half-life at 2 μM [4] [min] | Human GLP-1 R activity (cAMP release), % activity with respect to control (Human GLP-1 receptor; 1 nM test compound) [%] | Human GLP-1 R activity (cAMP release), % activity with respect to control (Human GLP-1 receptor; 10 nM test compound) [%] | Human GLP-1 R activity (cAMP release), % activity with respect to control (Human GLP-1 receptor; 100 nM test compound) [%] | Human GLP-1 R activity (cAMP release), % activity with respect to control (Human GLP-1 receptor; 1 μM test compound) [%] | Human GLP-1 R activity (cAMP release), % activity with respect to control (Human GLP-1 receptor; 10 μM test compound) [%] | % degradation of peptidomimetics in 24 h when incubated with DPP-IV enzyme (DPP IV) [%] | half-life at 2 μM (DPP IV) [min] | half-life at 2 μM [1] [min] | half-life at 2 μM [2] [min] | half-life (t1/2) when incubated with liver microsomes [3] | other results |
| --- | --- | --- | --- | --- | --- | --- | --- | --- | --- | --- | --- | --- | --- | --- | --- | --- | --- | --- | --- | --- | --- |
| CCc1cc(OC)ccc1-c1ccc(CC(C(=O)N(C)C(CCCc2ccccc2F)C(N)=O)N(C)C(=O)[C@H](CC(=O)O)NC(=O)[C@H](CO)NC(=O)[C@@H](NC(=O)C(C)(Cc2ccccc2F)NC(=O)[C@@H](NC(=O)CNC(=O)C(CCC#N)NC(=O)C(C)(C)NC(=O)[C@@H](N)Cc2c[nH]cn2)[C@H](C)O)[C@H](C)O)cc1 (single isomer, unassigned) [compound 144] | 5 ± 0.09 | 3 ± 0.11 | 0 | 0 | 0 | 14 | 43 | 80 | 78 | 480 | 55 ± 0.16 | 89 ± 0.05 | 93 ± 0.09 | 99 ± 0.02 | 99 ± 0.04 | 76 | 540 | – | – | – | half-life (t1/2) when incubated with simulated gastric fluid [1]: (8) h; half-life (t1/2) when incubated with simulated intestinal fluid [2]: (6) h; half-life at 2 μM [3]: 60 min |
| CCc1cc(OC)ccc1-c1ccc(CC(NC(=O)[C@H](CC(=O)O)NC(=O)[C@H](CO)NC(=O)[C@@H](NC(=O)C(C)(Cc2ccccc2F)NC(=O)[C@@H](NC(=O)CNC(=O)C(CCC#N)NC(=O)C(C)(C)NC(=O)[C@H](Cc2c[nH]cn2)NC(C)=O)[C@@H](C)O)[C@@H](C)O)C(=O)NC(CCCc2ccccc2F)C(N)=O)cc1 (single isomer, unassigned) [compound 207] | 0 | 0 | 0 | 0 | 0 | 00 | 00 | 26 | 00 | > 1440 | 40 ± 0.11 | 81 ± 0.09 | 89 ± 0.06 | 96 ± 0.14 | 99 ± 0.19 | 00 | > 1440 | > 1440 | > 1440 | (5) h | – |
| CCc1cc(OC)ccc1-c1ccc(CC(CNC(CCCc2ccccc2F)C(N)=O)NC[C@H](CC(=O)O)NC(=O)[C@H](CO)NC(=O)[C@@H](NC(=O)C(C)(Cc2ccccc2F)NC(=O)[C@@H](NC(=O)CNC(=O)C(CCC#N)NC(=O)C(C)(C)NC(=O)[C@@H](N)Cc2c[nH]cn2)[C@H](C)O)[C@H](C)O)cc1 (single isomer, unassigned) [compound 204] | 6 ± 0.05 | 5 ± 0.04 | 2 ± 0.16 | 0 | 0 | 00 | 00 | 32 | 00 | > 1440 | 96 ± 0.02 | 99 ± 0.46 | 99 ± 0.41 | 99 ± 0.66 | 99 ± 0.03 | 00 | > 1440 | > 1440 | > 1440 | (5) h | – |
| CCc1cc(OC)ccc1-c1ccc(CC(NC(=O)[C@H](CC(=O)O)NC(=O)[C@H](CO)NC(=O)[C@@H](NC(=O)C(C)(Cc2ccccc2F)NC(=O)[C@@H](NC(=O)CNC(=O)C(CCC#N)NC(=O)C(C)(C)NC(=O)[C@H](Cc2c[nH]cn2)NC(C)=O)[C@@H](C)O)[C@@H](C)O)C(=O)NC(CCCc2ccccc2)C(N)=O)cc1 (single isomer, unassigned) [compound 205] | 4 ± 0.16 | 2 ± 0.11 | 0 | 0 | 0 | 00 | 00 | 33 | 00 | > 1440 | 96 ± 0.09 | 99 ± 0.07 | 99 ± 0.04 | 99 ± 0.01 | 99 ± 0.08 | 00 | > 1440 | > 1440 | > 1440 | (5) h | – |
| CCc1cc(OC)ccc1-c1ccc(CC(CNC(CCCc2ccccc2)C(N)=O)NC[C@H](CC(=O)O)NC(=O)[C@H](CO)NC(=O)[C@@H](NC(=O)C(C)(Cc2ccccc2F)NC(=O)[C@@H](NC(=O)CNC(=O)[C@H](CCC(N)=O)NC(=O)C(C)(C)NC(=O)[C@H](Cc2c[nH]cn2)NC(=O)OC)[C@@H](C)O)[C@@H](C)O)cc1 (single isomer, unassigned) [compound 194] | 18 ± 0.12 | 16 ± 0.11 | 12 ± 0.13 | 8 ± 0.12 | 6 ± 0.18 | 43 | 00 | 84 | 00 | > 1440 | 38 ± 0.11 | 77 ± 0.16 | 85 ± 0.11 | 94 ± 0.08 | 97 ± 0.05 | 00 | > 1440 | 240 | > 1440 | – | half-life at 2 μM [3]: 120 min |
